# In patent EP4711369A1, “1H-[1,2,3]TRIAZOLO[4,5-H]QUINAZOLINE COMPOUNDS AS PROTEIN KINASE INHIBITORS” (Chengdu Cynogen Bio-Pharmaceutical Technology Co., Ltd., priority 2023, dated 2024):
# pIC50: −log10 of the molar value. Read-outs that look alike come from different tables or passages of the source.
# What was measured:
# CDK9/cyclin T1 = CDK9/cyclin T1 (Homo sapiens, UniProt P50750); test: Assay of kinase activity (ADP-Glo); assay type: biochemical; settings: kinase inhibitory activity
# Method: (§1) CDK/cyclin catalyzes the phosphorylation of a substrate, which concomitantly consumes ATP and produces ADP. The inhibition rate (%) in the presence of a small molecule inhibitor was assessed by measuring the amount of ADP generated in the reaction. The assay compounds were thoroughly mixed by vortexing and then diluted in DMSO to 100× the assay concentration. 40 nL of a compound was transferred to a 384-well assay plate using a nanoliter pipetting system (ECHO® 655 SYSTEM). A 2× kinase solution was prepared using a 1× kinase reaction buffer (50 mM Hepes, 10 mM MgCl2, 0.01% Brij35, 2 mM DTT). 2 µL of the kinase solution was transferred to the 384-well assay plate, and the plate was centrifuged at 1000 rpm for 60 seconds in a microplate centrifuge. The plate was incubated at 25 °C in a biochemical incubator for 10 minutes. A 2x mixture of substrate and ATP was prepared in the kinase reaction buffer. Then, 2 µL of the mixture of substrate and ATP was added to the 384-well assay plate. The plate was centrifuged at 1000 rpm for 60 seconds in a microplate centrifuge, and incubated at 25 °C in a biochemical incubator for 60 minutes. 4 µL of ADP-Glo Reagent (Cat. No. V9103, manufacturer: Promega) incubated at 25 °C in a biochemical incubator was added to each well of the 384-well assay plate. The plate was centrifuged at 1000 rpm for 60 seconds in a microplate centrifuge, and incubated at 25 °C in a biochemical incubator for 40 minutes. 8 µL of Detection Reagent incubated at 25 °C in a biochemical incubator was added to each well of the 384-well assay plate. The plate was centrifuged at 1000 rpm for 60 seconds in a microplate centrifuge, and incubated at 25 °C in a biochemical incubator for 40 minutes. Finally, luminescence signals were read using a multifunctional microplate reader (model: PHERAstar FSX, manufacturer: BMG). IC50 values were calculated by nonlinear fitting of the concentration-response curves using GraphPad Prism software.
# CDK6/cyclin D3 = CDK6/cyclin D3 (Homo sapiens, UniProt Q00534); test: Assay of kinase activity (ADP-Glo); assay type: biochemical; settings: kinase inhibitory activity
# Method: as §1
# CDK4/cyclin D1 = CDK4/cyclin D1 (Homo sapiens, UniProt P11802); test: Assay of kinase activity (ADP-Glo); assay type: biochemical; settings: kinase inhibitory activity
# Method: as §1, with “40 nL of a compound was transferred to a 384-well assay plate using a nanoliter pipetting system (ECHO® 655 SYSTEM).” left out
# CDK2/cyclin E = CDK2/cyclin E (Homo sapiens, UniProt P24941); test: Assay of kinase activity (ADP-Glo); assay type: biochemical; settings: kinase inhibitory activity, read-out: CDK2/E1 IC50
# Method: as §1, with “40 nL of a compound was transferred to a 384-well assay plate using a nanoliter pipetting system (ECHO® 655 SYSTEM).” left out
# [1] = tested on: human gastric cancer MKN1 cells; test: Assay of cell proliferation (CellTiter-Glo); assay type: cell-based; settings: read-out: MKN1 IC50 of cell proliferation inhibitory activity
# Method: (§2) Human ovarian cancer OVCAR3 cells were inoculated at 2000 cells/well in a 96-well plate and cultured in RPMI 1640 medium containing 20% FBS at 37 °C and 5% CO2 overnight in an incubator. The next day, the compounds were subjected to a three-fold gradient dilution in DMSO from a peak concentration of 2 mM to give nine concentrations. Then, the compounds were diluted 3:200 in growth medium, and finally diluted 1:3 in the cell culture supernatant to give a culture supernatant containing 0.5% DMSO, with the compounds treatment concentrations ranging from 10 µM to 0.1 nM. The cells and the compounds were incubated at 37 °C and 5% CO2 for 6 days. Then, cell proliferation assay was performed using the CellTiter-Glo (manufacturer: Promega, Cat. No. G9242), and luminescence signals were read using a multifunctional microplate reader (model: Synergy H1, manufacturer: BiotTek). IC50 values were calculated by fitting of the concentration-response curves with a four-parameter analysis method using GraphPad Prism software.
# (§3) The cell proliferation assays of human colon cancer HCT-116 cells, human breast cancer MCF-7 cells, human breast cancer HCC1806 cells, human acute myeloid leukemia MV-4-11 cells, and human gastric cancer MKN1 cells were performed according to the same method, with different inoculation densities set according to different cell growth characteristics.
# [2] = tested on: human breast cancer HCC1806 cells; test: Assay of cell proliferation (CellTiter-Glo); assay type: cell-based; settings: 6 days, read-out: HCC1806 IC50 of cell proliferation inhibitory activity
# Method: as §2, §3
# [3] = tested on: Human ovarian cancer OVCAR3 cells; test: Assay of cell proliferation (CellTiter-Glo); assay type: cell-based; settings: 6 days, read-out: OVCAR3 IC50 of cell proliferation inhibitory activity
# Method: as §2
# [4] = Homo sapiens, MKN-1, 144 h, MNK1, 6 days
# Chain of CDK9/cyclin T1 (P50750 whole entry, species assumed): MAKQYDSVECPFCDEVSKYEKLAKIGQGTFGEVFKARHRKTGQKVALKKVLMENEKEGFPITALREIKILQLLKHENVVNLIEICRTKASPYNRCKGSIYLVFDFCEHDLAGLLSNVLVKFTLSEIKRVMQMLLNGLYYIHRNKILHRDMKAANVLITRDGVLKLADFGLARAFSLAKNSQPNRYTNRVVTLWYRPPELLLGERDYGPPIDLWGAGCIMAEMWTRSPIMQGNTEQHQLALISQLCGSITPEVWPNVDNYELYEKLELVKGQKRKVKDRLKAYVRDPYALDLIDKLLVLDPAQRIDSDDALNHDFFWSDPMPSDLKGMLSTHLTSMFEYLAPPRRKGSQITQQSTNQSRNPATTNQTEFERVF
# Chain of CDK9/cyclin T1 (O60563 whole entry partner, species assumed): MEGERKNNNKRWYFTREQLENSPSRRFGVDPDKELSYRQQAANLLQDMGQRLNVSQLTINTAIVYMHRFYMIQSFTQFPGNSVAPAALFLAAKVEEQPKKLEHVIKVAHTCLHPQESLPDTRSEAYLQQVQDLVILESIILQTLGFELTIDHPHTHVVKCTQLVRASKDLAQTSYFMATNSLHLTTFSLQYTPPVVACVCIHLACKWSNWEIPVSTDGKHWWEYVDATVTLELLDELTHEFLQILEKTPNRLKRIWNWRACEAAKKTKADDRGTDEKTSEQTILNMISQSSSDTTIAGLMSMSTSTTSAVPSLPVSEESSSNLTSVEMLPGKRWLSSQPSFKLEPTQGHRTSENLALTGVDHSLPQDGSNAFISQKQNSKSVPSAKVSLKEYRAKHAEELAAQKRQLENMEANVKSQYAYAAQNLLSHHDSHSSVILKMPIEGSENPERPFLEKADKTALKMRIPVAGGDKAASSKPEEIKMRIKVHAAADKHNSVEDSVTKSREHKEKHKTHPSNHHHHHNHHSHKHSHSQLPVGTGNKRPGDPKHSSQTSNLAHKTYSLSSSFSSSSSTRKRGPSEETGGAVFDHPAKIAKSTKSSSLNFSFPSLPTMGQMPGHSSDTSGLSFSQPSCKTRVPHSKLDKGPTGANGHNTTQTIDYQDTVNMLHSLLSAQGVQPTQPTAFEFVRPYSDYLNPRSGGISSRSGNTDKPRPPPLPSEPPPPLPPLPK
# Chain of CDK4/cyclin D1 (P11802 whole entry, species assumed): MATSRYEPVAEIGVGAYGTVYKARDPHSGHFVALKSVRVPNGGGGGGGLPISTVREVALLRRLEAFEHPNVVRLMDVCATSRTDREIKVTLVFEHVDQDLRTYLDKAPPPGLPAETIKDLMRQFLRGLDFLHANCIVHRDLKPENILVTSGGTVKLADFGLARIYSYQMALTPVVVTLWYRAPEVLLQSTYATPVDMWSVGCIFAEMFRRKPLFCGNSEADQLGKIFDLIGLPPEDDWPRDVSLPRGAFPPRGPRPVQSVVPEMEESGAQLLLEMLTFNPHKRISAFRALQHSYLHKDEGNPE
# Chain of CDK4/cyclin D1 (P24385 whole entry partner, species assumed): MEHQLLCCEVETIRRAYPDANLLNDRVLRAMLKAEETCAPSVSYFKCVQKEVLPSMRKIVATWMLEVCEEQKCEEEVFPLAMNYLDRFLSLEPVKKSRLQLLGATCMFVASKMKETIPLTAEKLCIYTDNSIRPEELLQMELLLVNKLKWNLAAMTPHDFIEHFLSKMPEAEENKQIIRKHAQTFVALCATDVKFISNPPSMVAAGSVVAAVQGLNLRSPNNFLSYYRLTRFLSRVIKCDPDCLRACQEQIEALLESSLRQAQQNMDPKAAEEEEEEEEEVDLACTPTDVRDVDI
# Chain of CDK6/cyclin D3 (Q00534 whole entry, species assumed): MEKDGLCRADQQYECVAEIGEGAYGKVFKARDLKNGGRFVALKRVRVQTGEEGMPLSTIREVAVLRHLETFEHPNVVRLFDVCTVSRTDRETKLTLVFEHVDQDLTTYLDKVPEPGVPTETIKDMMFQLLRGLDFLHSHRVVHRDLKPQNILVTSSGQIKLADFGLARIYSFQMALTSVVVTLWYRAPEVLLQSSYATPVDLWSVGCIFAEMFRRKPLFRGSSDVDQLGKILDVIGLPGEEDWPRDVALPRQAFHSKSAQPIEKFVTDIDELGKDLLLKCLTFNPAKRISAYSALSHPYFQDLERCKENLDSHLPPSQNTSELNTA
# Chain of CDK6/cyclin D3 (P30281 whole entry partner, species assumed): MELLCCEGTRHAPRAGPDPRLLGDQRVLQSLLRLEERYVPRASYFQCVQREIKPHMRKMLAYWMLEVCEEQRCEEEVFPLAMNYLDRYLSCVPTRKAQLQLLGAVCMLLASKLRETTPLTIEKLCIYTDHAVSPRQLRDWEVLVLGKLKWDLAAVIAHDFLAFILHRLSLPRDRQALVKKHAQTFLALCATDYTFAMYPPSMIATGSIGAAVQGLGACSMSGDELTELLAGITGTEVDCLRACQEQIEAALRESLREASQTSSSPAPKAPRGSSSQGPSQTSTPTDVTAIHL
Molecule,pIC50 (CDK9/cyclin T1),pIC50 (CDK6/cyclin D3),pIC50 (CDK4/cyclin D1),pIC50 (CDK2/cyclin E),"pIC50 [1, 4]","pIC50 ([2]; Homo sapiens, 144 h)","pIC50 ([3]; Homo sapiens, OVCAR-3, 144 h)","pIC50 ([1]; column head MKN1, 6 days)",pIC50 [2],pIC50 [3]
"O=C(c1ccc(Nc2ncc3ccc4nnn(C5CCCC5)c4c3n2)cc1)N1CCCNCC1 [Example I-41, (4-((1-Cyclopentyl-1H-[1,2,3]triazolo[4,5-H]quinazolin-8-yl)amino)phenyl)(1,4-diazepan-1-yl)methanone]",8.70,8.30,9.00,10.10,8.40,7.82,7.96,–,–,–
"CC(C)n1nnc2c(C(F)F)cc3cnc(Nc4ccc(C(=O)N5CCCN(C)CC5)cc4)nc3c21 [Example I-47, (4-((4-(Difluoromethyl)-1-isopropyl-1H-[1,2,3]triazolo[4,5-H]quinazolin-8-yl)amino)phenyl)(4-methyl-1,4-diazepan-1-yl)methanone]",6.83,7.70,8.70,9.15,6.95,6.77,6.84,–,–,–
"CC(C)(O)Cn1nnc2ccc3cnc(Nc4ccc(C(=O)N5CCNCC5)cc4)nc3c21 [Example I-52, (4-((1-(2-Hydroxy-2-methylpropyl)-1H-[1,2,3]triazolo[4,5-H]quinazolin-8-yl)amino)phenyl)(piperazin-1-yl)methanone]",6.38,6.90,8.00,8.40,–,5.29,–,–,–,–
"(S)-(3-Aminopyrrolidin-1-yl)(4-(4-(difluoromethyl)-1-isopropyl-1H-[1,2,3]triazolo[4,5-H]quinazolin-8-yl)amino)phenyl)methanone [Example I-43]",6.89,8.10,8.70,9.00,–,–,–,6.35,6.20,6.17
"C[C@@H](CO)n1nnc2ccc3cnc(Nc4ccc(C(=O)N5CCOCC5)cc4)nc3c21 [Example I-49, (S)-(4-((1-(1-Hydroxypropan-2-yl)-1H-[1,2,3]triazolo[4,5-H]quinazolin-8-yl)amino)phenyl)(morpholino)methanone]",6.41,6.40,7.68,8.52,–,5.67,5.86,–,–,–
"CCN1CCN(C(=O)c2ccc(Nc3ncc4ccc5nnn(C(C)C)c5c4n3)cc2)CC1 [Example I-29, (4-Ethylpiperazin-1-yl)(4-((1-isopropyl-1H-[1,2,3]triazolo[4,5-H]quinazolin-8-yl)amino)phenyl)metha none]",8.22,7.92,8.70,9.00,7.82,6.68,7.40,–,–,–
"CC(C)n1nnc2ccc3cnc(Nc4ccc(C(=O)N5CCC(N(C)C)CC5)cc4)nc3c21 [Example I-15, (4-(Dimethylamino)piperidin-1-yl)(4-((1-isopropyl-1H-[1,2,3]triazolo[4,5-H]quinazolin-8-yl)amino)phenyl)metha none]",7.36,7.03,8.70,9.00,–,6.75,6.58,–,–,–
"C[C@@H](CO)n1nnc2ccc3cnc(Nc4ccc(C(=O)N5CCNCC5)cc4)nc3c21 [Example I-48, (S)-(4-((1-(1-Hydroxypropan-2-yl)-1H-[1,2,3]triazolo[4,5-H]quinazolin-8-yl)amino)phenyl)(piperazin-1-yl)methanone]",6.46,6.69,8.15,8.52,–,5.26,–,–,–,–
"CC(C)(O)Cn1nnc2ccc3cnc(Nc4ccc(C(=O)N5CCOCC5)cc4)nc3c21 [Example I-53, (4-((1-(2-Hydroxy-2-methylpropyl)-1H-[1,2,3]triazolo[4,5-H]quinazolin-8-yl)amino)phenyl)(morpholino)methanone]",6.00,6.10,7.31,8.10,–,5.50,5.76,–,–,–
